# In ChEMBL document CHEMBL4428037 (J Med Chem, 2016):
# Calls of active or inactive are those of the source. The rule behind the calls is not given here.
# Tests used:
# [1] = tested on: Non-small cell lung cancer cell line; assay: Antitumor activity against human NSCLC xenografted in Balb/c-nu mouse assessed as inhibition of tumor growth at 50 mg/kg, ip dosed every day for 21 consecutive days and measured every 3 days; type: functional; details: 72 h, read-out: TGI
# [2] = tested on: HUVEC; assay: Inhibition of capillary tube formation in HUVEC assessed as reduction in tube-like structures formation at 10 nM incubated for 8 hrs by fluorescence microscopy based 3D-matrigel assay; type: functional; details: Homo sapiens
# [3] = tested on: A549; assay: Increase in cyclin B1 expression in human A549 cells incubated for 24 hrs by Western blotting; type: functional, cell-based
# [4] = tested on: A549; assay: Induction of apoptosis in human A549 cells assessed as late apoptotic cells level at 40 nM incubated for 24 hrs by Annexin V-FITC/PI staining based FACS flow cytometry (reference value: 2.15%); type: functional
# [5] = tested on: A549; assay: Induction of apoptosis in human A549 cells assessed as increase in PARP cleavage level incubated for 24 hrs by Western blotting; type: functional, cell-based
# [6] = Toxicity in human NSCLC xenografted Balb/c-nu mouse assessed as effect on body weight at 50 mg/kg, ip dosed every day for 21 consecutive days; type: organism-based; details: in vivo
# [7] = tested on: MCF7; assay: cells; details: Homo sapiens, MCF7, 72 h
# [8] = Toxicity in human NSCLC xenografted Balb/c-nu mouse assessed as effect on body weight at 12.5 mg/kg, ip dosed every day for 21 consecutive days; type: organism-based; details: in vivo
# [9] = tested on: A549; assay: Induction of apoptosis in human A549 cells assessed as necrotic cells level at 20 nM incubated for 24 hrs by Annexin V-FITC/PI staining based FACS flow cytometry (reference value: 0.37%); type: functional
# [10] = tested on: A549; assay: Induction of apoptosis in human A549 cells assessed as live cells level at 10 nM incubated for 24 hrs by Annexin V-FITC/PI staining based FACS flow cytometry (reference value: 96.83%); type: functional
# [11] = tested on: Non-small cell lung cancer cell line; assay: Antitumor activity against human NSCLC xenografted in Balb/c-nu mouse assessed as induction of delay in tumor volume increase at 50 mg/kg, ip dosed every day for 21 consecutive days and measured every 3 days; type: functional, organism-based
# [12] = tested on: A549; assay: Induction of apoptosis in human A549 cells assessed as live cells level at 40 nM incubated for 24 hrs by Annexin V-FITC/PI staining based FACS flow cytometry (reference value: 96.83%); type: functional
# [13] = tested on: A549; assay: Induction of apoptosis in human A549 cells assessed as induction of cytoplasmic membrane blebbing at 40 nM incubated for 24 hrs microscopy; type: functional, cell-based
# [14] = target: Tubulin (Sus scrofa, UniProt P02554+P02550); assay: (§1) Inhibition of porcine brain tubulin polymerization incubated for 60 mins by fluorescence-based assay
# [15] = target: T1, Tubulin (Sus scrofa) (UniProt P02554+P02550); assay: as §1
# [16] = target: T1, Tubulin (Sus scrofa); assay: Displacement of [3H]colchicine from biotinylated porcine tubulin at 5 uM incubated for 2 hrs by competition scintillation proximity; type: protein assay
# [17] = tested on: HUVEC; assay: Inhibition of capillary tube formation in HUVEC assessed as reduction in tube-like structures formation at 20 nM incubated for 8 hrs by fluorescence microscopy based 3D-matrigel assay; type: functional; details: Homo sapiens
# [18] = tested on: HeLa; assay: Growth inhibition of human HeLa cells incubated for 72 hrs by MTT assay; type: functional, cell-based
# [19] = tested on: A549; assay: Inhibition of colony formation in human A549 cells incubated for 9 days by crystal violet staining based assay; type: functional, cell-based
# [20] = tested on: A549; assay: Induction of apoptosis in human A549 cells assessed as late apoptotic cells level at 10 nM incubated for 24 hrs by Annexin V-FITC/PI staining based FACS flow cytometry (reference value: 2.15%); type: functional
# [21] = tested on: A549; assay: Induction of cell cycle arrest in human A549 cells assessed as accumulation at G2/M phase at 40 nM incubated for 24 hrs by propidium iodide staining based FACS flow cytometry; type: functional
# [22] = tested on: NCI-H460; assay: Inhibition of colony formation in human NCI-H460 cells at 10 nM incubated for 9 days by crystal violet staining based assay; type: functional; details: NCI-H460, 216 h
# [23] = tested on: Non-small cell lung cancer cell line; assay: Antitumor activity against human NSCLC xenografted in Balb/c-nu mouse assessed as induction of delay in tumor volume increase at 12.5 mg/kg, ip dosed every day for 21 consecutive days and measured every 3 days; type: functional, organism-based
# [24] = tested on: A549; assay: Induction of apoptosis in human A549 cells assessed as early apoptotic cells level at 10 nM incubated for 24 hrs by Annexin V-FITC/PI staining based FACS flow cytometry (reference value: 0.65%); type: functional
# [25] = tested on: Non-small cell lung cancer cell line; assay: Antitumor activity against human NSCLC xenografted in Balb/c-nu mouse assessed as inhibition of tumor growth at 12.5 mg/kg, ip dosed every day for 21 consecutive days and measured every 3 days; type: functional; details: 72 h, read-out: TGI
# [26] = tested on: A549; assay: Induction of apoptosis in human A549 cells assessed as induction of nucleus fragmentation at 40 nM incubated for 24 hrs microscopy; type: functional, cell-based
# [27] = tested on: A549; assay: Induction of apoptosis in human A549 cells assessed as necrotic cells level at 10 nM incubated for 24 hrs by Annexin V-FITC/PI staining based FACS flow cytometry (reference value: 0.37%); type: functional
# [28] = tested on: A549; assay: Cytotoxicity against human A549 cells assessed as reduction in cell viability at 5 nM to 80 nM incubated for 24 hrs by trypan blue staining assay; type: cell-based; details: a549, 24 h, 0.005 µM
# [29] = target: Tubulin alpha (Homo sapiens) (UniProt P0DPH7+P68366+Q71U36+P68363+Q9BQE3+Q6PEY2+A6NHL2+Q9NY65); assay: Inhibition of alpha tubulin polymerization in human A549 cells assessed as induction of cell border shrinkage of microtubules at 40 nM by Immunofluorescent staining based fluorescence microscopy
# [30] = tested on: HUVEC; assay: Inhibition of capillary tube formation in HUVEC assessed as reduction in tube-like structures formation at 40 nM incubated for 8 hrs by fluorescence microscopy based 3D-matrigel assay; type: functional; details: Homo sapiens
# [31] = tested on: HUVEC; assay: Toxicity in HUVEC assessed as effect on cell proliferation at 10 to 40 nM incubated for 8 hrs; type: cell-based; details: human, 0.04 µM
# [32] = tested on: A549; assay: Induction of apoptosis in human A549 cells assessed as induction of cell shrinkage at 40 nM incubated for 24 hrs microscopy; type: functional, cell-based
# [33] = tested on: A549; assay: Induction of apoptosis in human A549 cells assessed as necrotic cells level at 40 nM incubated for 24 hrs by Annexin V-FITC/PI staining based FACS flow cytometry (reference value: 0.37%); type: functional
# [34] = tested on: A549; assay: Growth inhibition of human A549 cells incubated for 48 hrs by MTT assay; type: functional, cell-based; details: A549, 48 h
# [35] = tested on: A549; assay: Induction of apoptosis in human A549 cells assessed as early apoptotic cells level at 40 nM incubated for 24 hrs by Annexin V-FITC/PI staining based FACS flow cytometry (reference value: 0.65%); type: functional
# [36] = tested on: A549; assay: Inhibition of colony formation in human A549 cells at 10 nM incubated for 9 days by crystal violet staining based assay; type: functional; details: A549, 216 h
# [37] = tested on: A549; assay: Induction of apoptosis in human A549 cells assessed as early apoptotic cells level at 20 nM incubated for 24 hrs by Annexin V-FITC/PI staining based FACS flow cytometry (reference value: 0.65%); type: functional
# [38] = tested on: HUVEC; assay: Inhibition of capillary tube formation in HUVEC assessed as reduction in tube-like structures formation incubated for 8 hrs by fluorescence microscopy based 3D-matrigel assay; type: functional, cell-based; details: Homo sapiens
smiles,measurement,setting,value
CCOc1cccc(Nc2nn(C)c3c2Cc2cc(OCC)c(OCC(N)=O)cc2-3)c1,inhibition in vivo at 50 mg/kg,[1],59.1%
same,inhibition at 0.01 µM,[2],39%
same,Activity,[3],Dose-dependent effect
same,Activity,[4],5.47%
same,Activity,[5],Dose-dependent effect
same,Activity,[6],Non-Toxic
same,IC50,[7],32.3 nM
same,Activity,[8],Non-Toxic
same,Activity,[9],0.84%
same,Activity,[10],95.66%
same,Activity,[11],Active
same,Activity,[12],84.24%
same,Activity,[13],Active
same,IC50,[14],4620 nM
same,inhibition,[15],Dose-dependent effect
same,inhibition,[16],67%
same,inhibition at 0.02 µM,[17],58%
same,IC50,[18],7.4 nM
same,inhibition,[19],Dose-dependent effect
same,Activity,[20],2.7%
same,Activity,[21],68.1%
same,inhibition at 0.01 µM,[22],97.3%
same,Activity,[23],Active
same,Activity,[24],1.01%
same,inhibition in vivo at 12.5 mg/kg,[25],33.8%
same,Activity,[26],Active
same,Activity,[27],0.62%
same,Activity,[28],Non-Toxic
same,inhibition,[29],Active
same,inhibition at 0.04 µM,[30],69%
same,Activity,[31],Non-Toxic
same,Activity,[32],Active
same,Activity,[33],1.23%
same,IC50,[34],41.5 nM
same,Activity,[35],9.06%
same,inhibition at 0.01 µM,[36],91%
same,Activity,[37],3.78%
same,inhibition,[38],Dose-dependent effect
